According to PMC10390517, “Design, synthesis, in vitro, and in silico evaluations of benzo[d]imidazole-amide-1,2,3-triazole-N-arylacetamide hybrids as new antidiabetic agents targeting α-glucosidase” (Scientific Reports, 2023):
Like-named read-outs stand apart in the source and are kept apart here.

Tests used:
α-glucosidase [1] = target: T1, α-glucosidase (Saccharomyces cerevisiae, UniProt P53341); assay: biochemical; assay type: biochemical; conditions: for activity against α-glucosidase (in words): SAR discussion / conclusion, compared with acarbose; for IC50: yeast form of α-glucosidase, mean ± S.E. of at least three different experiments
T1 sequence (P53341 whole entry): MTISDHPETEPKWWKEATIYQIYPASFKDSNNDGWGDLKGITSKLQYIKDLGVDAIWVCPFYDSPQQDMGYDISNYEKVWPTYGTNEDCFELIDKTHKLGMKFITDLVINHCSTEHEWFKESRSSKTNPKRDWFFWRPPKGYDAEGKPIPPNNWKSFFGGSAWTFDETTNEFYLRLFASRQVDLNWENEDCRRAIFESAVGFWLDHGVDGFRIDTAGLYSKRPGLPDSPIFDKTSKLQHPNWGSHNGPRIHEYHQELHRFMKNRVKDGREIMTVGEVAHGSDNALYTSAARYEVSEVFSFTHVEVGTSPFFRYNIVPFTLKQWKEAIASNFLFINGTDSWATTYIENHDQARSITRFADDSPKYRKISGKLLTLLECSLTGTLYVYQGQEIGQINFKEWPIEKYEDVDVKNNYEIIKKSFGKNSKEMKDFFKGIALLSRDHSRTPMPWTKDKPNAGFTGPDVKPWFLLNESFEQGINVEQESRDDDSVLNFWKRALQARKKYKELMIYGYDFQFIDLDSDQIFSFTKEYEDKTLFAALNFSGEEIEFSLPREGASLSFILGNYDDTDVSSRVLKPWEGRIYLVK
Description: The newly synthesized benzo[d]imidazole-amide-1,2,3-triazole-N-arylacetamide hybrids 8a–n were evaluated against yeast form of α-glucosidase.

[2] = test system: breast cancer cell line (MCF-7); assay: In vitro cytotoxicity by MTT method, MCF-7; conditions: cancer cell line MCF-7
[3] = In vitro cytotoxicity by MTT method, MCF-7; conditions: human, MCF-7 breast cancer cells
α-glucosidase [4] = target: T1, α-glucosidase; assay: Kinetic study of α-glucosidase inhibition (Lineweaver–Burk plots); assay type: biochemical, yeast
Description: Therefore, values of Vmax remained constant while the values of Km increased. […] Besides, the Ki value was 40.0 µM that was obtained by the secondary plot of Lineweaver–Burk plots (Fig. 2b).
Figure 2 Inhibitory kinetics of compound 8c on α-glucosidase. (a) Lineweaver–Burk plots for inhibition of compound 8c. (b) The secondary plot of Lineweaver–Burk plots for determination Ki value of compound 8c.
In vitro anti-α-glucosidase inhibition and kinetic study of the new compounds 8a–n were performed exactly according to our pervious reported works.

[5] = test system: normal human cell line (HDF); assay: In vitro cytotoxicity by MTT method, HDF; conditions: normal cell line HDF
[6] = In vitro cytotoxicity by MTT method, HDF; conditions: human, HDF normal human cells
[7] = read-out: IC50 (α-glucosidase inhibitory activity)
[8] = IC50 (α-glucosidase inhibitory activity)

Row | SMILES | IC50 (α-glucosidase [1]; [7]) [µM] | IC50 (α-glucosidase [1]; [8]) [µM] | melting point [°C] | further results
1 | O=C(Cn1cc(CNC(=O)c2nc3ccccc3[nH]2)nn1)Nc1ccccc1 [8a, N-((1-(2-oxo-2-(phenylamino)ethyl)-1H-1,2,3-triazol-4-yl)methyl)-1H-benzo[d]imidazole-2-carboxamide] | > 750 |  |  | activity against α-glucosidase (in words) (α-glucosidase [1]): have not activity
2 | Cc1ccccc1NC(=O)Cn1cc(CNC(=O)c2nc3ccccc3[nH]2)nn1 [8b, N-((1-(2-oxo-2-(o-tolylamino)ethyl)-1H-1,2,3-triazol-4-yl)methyl)-1H-benzo[d]imidazole-2-carboxamide] |  | > 750 |  | activity against α-glucosidase (in words) (α-glucosidase [1]): have not activity
3 | Cc1cccc(NC(=O)Cn2cc(CNC(=O)c3nc4ccccc4[nH]3)nn2)c1 [8c, N-((1-(2-oxo-2-(m-tolylamino)ethyl)-1H-1,2,3-triazol-4-yl)methyl)-1H-benzo[d]imidazole-2-carboxamide] |  | 49 ± 0.4 | 206 to 208 | cytotoxic activity (in words) [2]: did not show cytotoxic activity; IC50 [3]: > 200 µM; inhibition mechanism against α-glucosidase (α-glucosidase [4]; Lineweaver–Burk plot, Vmax constant, Km increased): competitive inhibitor; Ki (α-glucosidase [4]; secondary plot of Lineweaver–Burk plots): 40 µM; cytotoxic activity (in words) [5]: did not show cytotoxic activity; IC50 [6]: > 200 µM; fold more potent than positive control (acarbose) (α-glucosidase [1]; ratio of IC50 values vs acarbose): 15.3 fold
4 | Cc1ccc(NC(=O)Cn2cc(CNC(=O)c3nc4ccccc4[nH]3)nn2)cc1 [8d, N-((1-(2-oxo-2-(p-tolylamino)ethyl)-1H-1,2,3-triazol-4-yl)methyl)-1H-benzo[d]imidazole-2-carboxamide] |  | > 750 | 209 to 211 | activity against α-glucosidase (in words) (α-glucosidase [1]): have not activity
5 | Cc1cccc(NC(=O)Cn2cc(CNC(=O)c3nc4ccccc4[nH]3)nn2)c1C [8e, N-((1-(2-((2,3-dimethylphenyl)amino)-2-oxoethyl)-1H-1,2,3-triazol-4-yl)methyl)-1H-benzo[d]imidazole-2-carboxamide] | 119.2 ± 0.8 |  | 216 to 218 | cytotoxic activity (in words) [2]: did not show cytotoxic activity; IC50 [3]: > 200 µM; cytotoxic activity (in words) [5]: did not show cytotoxic activity; IC50 [6]: > 200 µM; inhibitory activity diminished (fold) relative to 8c (α-glucosidase [1]; addition of a 2-methyl group to 3-methyl derivative 8c): around 2.5 fold
6 | Cc1ccc(NC(=O)Cn2cc(CNC(=O)c3nc4ccccc4[nH]3)nn2)c(C)c1 [8f, N-((1-(2-((2,4-dimethylphenyl)amino)-2-oxoethyl)-1H-1,2,3-triazol-4-yl)methyl)-1H-benzo[d]imidazole-2-carboxamide] | 422.6 ± 1.1 |  | 226 to 228 | 
7 | Cc1cccc(C)c1NC(=O)Cn1cc(CNC(=O)c2nc3ccccc3[nH]2)nn1 [8g, N-((1-(2-((2,6-dimethylphenyl)amino)-2-oxoethyl)-1H-1,2,3-triazol-4-yl)methyl)-1H-benzo[d]imidazole-2-carboxamide] | 125.6 ± 0.3 |  | 222 to 224 | cytotoxic activity (in words) [2]: did not show cytotoxic activity; IC50 [3]: > 200 µM; cytotoxic activity (in words) [5]: did not show cytotoxic activity; IC50 [6]: > 200 µM
8 | CCc1ccc(NC(=O)Cn2cc(CNC(=O)c3nc4ccccc4[nH]3)nn2)cc1 [8h, N-((1-(2-((4-ethylphenyl)amino)-2-oxoethyl)-1H-1,2,3-triazol-4-yl)methyl)-1H-benzo[d]imidazole-2-carboxamide] | 251.9 ± 1.6 |  | 213 to 215 | 
9 | COc1ccc(NC(=O)Cn2cc(CNC(=O)c3nc4ccccc4[nH]3)nn2)cc1 [8i, N-((1-(2-((4-methoxyphenyl)amino)-2-oxoethyl)-1H-1,2,3-triazol-4-yl)methyl)-1H-benzo[d]imidazole-2-carboxamide] |  | > 750 | 235 to 237 | 
10 | O=C(Cn1cc(CNC(=O)c2nc3ccccc3[nH]2)nn1)Nc1ccc(F)cc1 [8j, N-((1-(2-((4-fluorophenyl)amino)-2-oxoethyl)-1H-1,2,3-triazol-4-yl)methyl)-1H-benzo[d]imidazole-2-carboxamide] |  | > 750 | 245 to 247 | 
11 | O=C(Cn1cc(CNC(=O)c2nc3ccccc3[nH]2)nn1)Nc1ccc(Cl)cc1 [8k, N-((1-(2-((4-chlorophenyl)amino)-2-oxoethyl)-1H-1,2,3-triazol-4-yl)methyl)-1H-benzo[d]imidazole-2-carboxamide] |  | 134.2 ± 0.9 | 236 to 238 | 
12 | O=C(Cn1cc(CNC(=O)c2nc3ccccc3[nH]2)nn1)Nc1ccc(Cl)cc1Cl [8l, N-((1-(2-((2,4-dichlorophenyl)amino)-2-oxoethyl)-1H-1,2,3-triazol-4-yl)methyl)-1H-benzo[d]imidazole-2-carboxamide] | 668.5 ± 1.4 |  | 247 to 249 | 
13 | O=C(Cn1cc(CNC(=O)c2nc3ccccc3[nH]2)nn1)Nc1ccc(Br)cc1 [8m, N-((1-(2-((4-bromophenyl)amino)-2-oxoethyl)-1H-1,2,3-triazol-4-yl)methyl)-1H-benzo[d]imidazole-2-carboxamide] |  | 183.6 ± 0.8 | 227 to 229 | 
14 | O=C(Cn1cc(CNC(=O)c2nc3ccccc3[nH]2)nn1)Nc1ccc([N+](=O)[O-])cc1 [8n, N-((1-(2-((4-nitrophenyl)amino)-2-oxoethyl)-1H-1,2,3-triazol-4-yl)methyl)-1H-benzo[d]imidazole-2-carboxamide] | > 750 |  | 259 to 261 | 
